Patent publication US12435062B2, “Amide compounds and uses thereof” (HUTCHISON MEDIPHARMA LIMITED, priority 2020, dated 2025)

Experiments:
[1] = biological target: Recombinant human CSF1R kinase (Homo sapiens (Human), UniProt P07333); type: biochemical; settings: Z-LYTE Tyr 1 peptide substrate
Ba/F3^BCR-FMS-11 cells = test: Cell proliferation experiment (Ba/F3^BCR-FMS-11, cckit-8); type: cell-based, mouse; settings: Mus musculus, Ba/F3^BCR-FMS-11 cell proliferation
Protocol: Cell Proliferation Experiment
Ba/F3^BCR-FMS-11, mouse primary B lymphocytes stably expressing the BCR-FMS fusion gene. The cells were cultured in an RPMI 1640 medium containing 10% FBS.
(§1) 2. Reagents and instruments
• cckit-8 kit: Dojindo, 9 CK04; • Envision: Perkin Elmer; • Cell culture plate: Facol, 9353027. 3. Experimental steps
The BCR-FMS fusion gene was transfected into Ba/F3 cells, and the cell line Ba/F3^BCR-FMS-11 that stably expresses BCR-FMS and grows depending on CSF-1R was screened. Ba/F3^BCR-FMS-11 cell proliferation experiments is completed by using the Cell Counting kit cckit-8 in a 96-well plate. In a 96-well plate, 5000/well of Ba/F3^BCR-FMS-11 cells were inoculated at 100 μL/well. […] 10 μL of the compound dilutions with the above 8 concentrations were added to the culture cell wells. The culture was incubated in a 37° C. and 5% CO2 cell incubator for 72 hours. 10 μL of Cell Counting kit cckit-8 detection reagent was added to each well, and incubated at 37° C. and 5% CO2 in a cell incubator for another 1 h. The optical density absorption value at 450 nm of each well was detected by using Perkin Elmer Envision instrument.
wherein • Drug-treated well read-out: indicating the optical density signal of a cell well with the test compound treatment. • Cell well read-out: indicating the optical density signal of a cell well not treated with the test compound (only 0.5% DMSO). • Background read-out: indicating the optical density signal of a well with the cell medium. 5. Calculation of IC50: obtained by using XL-Fit 5.3 software. 6. Test results

[2] = biological target: CSF1R phosphorylation in THP-1 cells (Homo sapiens (Human), UniProt P07333); test: Detection of CSF1R phosphorylation activity at cell level (THP-1, M-CSF stimulated, ELISA); type: cell-based; settings: p-CSF1R ELISA, compound 60 min, 300 ng/mL M-CSF 1 min
Protocol: Detection of CSF1R Phosphorylation Activity at Cell Level
THP-1 (ATCC), human acute monocytic leukemia cells. The cells were cultured in an RPMI 1640 medium containing 10% FBS.
as §1
• Human phosphorylation-CSF1R ELISA kit: R&D, #DYC3268-2; • RPMI 1640 culture solution: GIBCO, 910491; • Human M-CSF recombinant cytokine: R&D, 9216-MC-500; • Cell lysis buffer: Cell Signal, 99803S; • 1×PBS buffer (1 L): 8.0 g of NaCl, 0.2 g of KCl, 3.58 g of Na2HPO4-12H2O, 0.24 g of KH2PO4 were dissolved in 1 L of dd H2O, and the pH was adjusted to 7.4; • Blocking solution: PBS buffer containing 1% BSA; • PBST washing liquid: PBS buffer containing 0.05% Tween-20; • Chromogenic substrate: R&D, #DY999; • 2N H2SO4; • Microwell plate reader: Labsystems Multiskan K3: Thermo; Envision: Perkin Elmer; • ELISA plate: Corning, #9018; • Cell culture plate: Facol, #353027. 3. Treatment of cells and preparation of lysis buffer
THP-1 cells were resuspended in RPMI-1640 culture solution containing 2% FBS, and the culture was added to a 96-well plate at a density of 5×10^4/well, 50 μL/well, and cultured in a cell incubator at 5% CO2 and 37° C. overnight; The test compound was diluted with a serum-free RPMI-1640 medium to 3, 1.1, 0.37, 0.12, 0.04, 0.014, 0.005 and 0.002 μM, and the concentration of DMSO was 5%. 5 μL of the diluted compound was added to the 50 μL cell culture system, the culture was cultured in a 5% CO2, 37° C. cell incubator for 60 min, 300 ng/mL of M-CSF was added to the cells, and the mixture was stimulated in the 37° C. cell incubator for 1 min, added 50 μL of cell lysis buffer, and stored in a refrigerator at −80° C.
100 μL/well of the p-CSF1R capture antibody diluted to 0.8 μg/mL with PBS was added to the ELISA plate, and the plate was coated on a shaker at room temperature overnight. The culture was washed with PBST, and then added blocking solution and incubated at room temperature for 2 h. The culture was washed with PBST, added 90 μL of cell lysis buffer, and incubated on a shaker at 25° C. for 2 h. The plate was washed with PBST three times, added 100 μL of anti-p-tyrosine-HRP detection antibody diluted with 0.1% PBS-BSA diluent, and incubated on a shaker at 25° C. for 2 h. The plate was washed with PBST washing liquid, added 100 μL of chromogenic substrate and incubated at room temperature for 10-20 min. The reaction was stopped by adding 50 μL of 2N H2SO4. The optical density signal (450/570 nm) of each well was detected in Labsystems Multiskan K3 or Envision.
wherein • Drug-treated well read-out: indicating the optical density signal of a cell well with the test compound treatment. • Background read-out: indicating the optical density signal of a well without cells but with cell lysis buffer. • Cell well read-out: indicating the optical density signal of a cell well not treated with the compound. 6. Calculation of IC50: obtained by using XL-Fit 5.3 software. 7. Test results

Recombinant human CSF1R kinase, sequence (P07333 20-972): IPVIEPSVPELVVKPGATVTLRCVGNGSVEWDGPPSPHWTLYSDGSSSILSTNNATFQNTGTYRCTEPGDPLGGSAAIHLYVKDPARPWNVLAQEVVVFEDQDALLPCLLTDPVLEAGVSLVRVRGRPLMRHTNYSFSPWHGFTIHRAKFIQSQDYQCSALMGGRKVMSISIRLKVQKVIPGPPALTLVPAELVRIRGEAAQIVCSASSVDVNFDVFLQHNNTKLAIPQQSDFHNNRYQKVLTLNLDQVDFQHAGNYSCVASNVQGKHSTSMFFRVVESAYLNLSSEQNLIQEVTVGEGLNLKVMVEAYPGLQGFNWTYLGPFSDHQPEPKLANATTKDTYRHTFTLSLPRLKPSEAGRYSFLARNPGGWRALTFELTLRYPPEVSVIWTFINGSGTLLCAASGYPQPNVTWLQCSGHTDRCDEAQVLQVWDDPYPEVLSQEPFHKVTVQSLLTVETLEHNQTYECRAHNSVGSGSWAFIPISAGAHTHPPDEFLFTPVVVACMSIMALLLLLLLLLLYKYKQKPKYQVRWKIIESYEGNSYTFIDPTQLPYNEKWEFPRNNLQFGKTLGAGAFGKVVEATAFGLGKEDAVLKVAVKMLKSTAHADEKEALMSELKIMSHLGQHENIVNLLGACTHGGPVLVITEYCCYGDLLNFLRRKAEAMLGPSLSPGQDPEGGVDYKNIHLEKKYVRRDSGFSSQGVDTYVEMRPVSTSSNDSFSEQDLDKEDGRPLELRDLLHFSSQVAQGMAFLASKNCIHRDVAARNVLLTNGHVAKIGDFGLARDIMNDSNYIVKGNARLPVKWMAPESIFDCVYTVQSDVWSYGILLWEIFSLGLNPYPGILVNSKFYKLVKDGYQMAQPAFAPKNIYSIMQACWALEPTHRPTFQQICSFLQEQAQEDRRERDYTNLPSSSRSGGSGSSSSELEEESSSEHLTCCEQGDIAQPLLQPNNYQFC
CSF1R phosphorylation in THP-1 cells, sequence (P07333 20-972): as above

IC50 [1] [nM]	IC50 (Ba/F3^BCR-FMS-11 cells; 72 h) [nM]	SMILES	further results
217		CC(C)n1c(N(C)C)ccc(C(=O)Nc2ccc(Oc3ccnc(-c4cnn(C)c4)c3)cn2)c1=O [Compound 1, 6-(dimethylamino)-1-isopropyl-N-(5-((2-(1-methyl-1H-pyrazol-4-yl)pyridin-4-yl)oxy)pyridin-2-yl)-2-oxo-1,2-dihydropyridine-3-carboxamide]	
		CN(C)c1ccc(C(=O)Nc2ccc(Oc3ccnc(-c4cnn(C)c4)c3)cn2)c(=O)n1C [Compound 2, 6-(dimethylamino)-1-methyl-N-(5-((2-(1-methyl-1H-pyrazol-4-yl)pyridin-4-yl)oxy)pyridin-2-yl)-2-oxo-1,2-dihydropyridine-3-carboxamide]	IC50 (Ba/F3^BCR-FMS-11 cells; 72 hours): 11 nM
5	12	COc1ccc(C(=O)Nc2ccc(Oc3ccnc(-c4cnn(C)c4)c3)cn2)c(=O)n1C [Compound 3, 6-methoxy-1-methyl-N-(5-((2-(1-methyl-1H-pyrazol-4-yl)pyridin-4-yl)oxy)pyridin-2-yl)-2-oxo-1,2-dihydropyridine-3-carboxamide]	IC50 [2]: 63 nM
66	60	Cn1cc(Nc2cc(Oc3cnc(NC(=O)c4cccn(C)c4=O)c(F)c3)ccn2)cn1 [Compound 4, N-(3-fluoro-5-((2-((1-methyl-1H-pyrazol-4-yl)amino)pyridin-4-yl)oxy)pyridin-2-yl)-1-methyl-2-oxo-1,2-dihydropyridine-3-carboxamide]	IC50 [2]: 28 nM
22	47	Cc1ncc(C(=O)Nc2ccc(Oc3cc(-c4cnn(C)c4)ncn3)cn2)c(=O)n1C [Compound 5, 1,2-dimethyl-N-(5-((6-(1-methyl-1H-pyrazol-4-yl)pyrimidin-4-yl)oxy)pyridin-2-yl)-6-oxo-1,6-dihydropyrimidine-5-carboxamide]	IC50 [2]: 11 nM
7	15	CC(C)n1cccc(C(=O)Nc2ccc(Oc3ccnc(-c4cnn(C)c4)n3)cn2)c1=O [Compound 6, 1-isopropyl-N-(5-((2-(1-methyl-1H-pyrazol-4-yl)pyrimidin-4-yl)oxy)pyridin-2-yl)-2-oxo-1,2-dihydropyridine-3-carboxamide]	IC50 [2]: 21 nM
67	39	Cc1ncc(C(=O)Nc2ccc(Oc3ccnc(-c4cnn(C)c4)n3)cn2)c(=O)n1C [Compound 7, 1,2-dimethyl-N-(5-((2-(1-methyl-1H-pyrazol-4-yl)pyrimidin-4-yl)oxy)pyridin-2-yl)-6-oxo-1,6-dihydropyrimidine-5-carboxamide]	IC50 [2]: 25 nM
	44	Cc1ncc(C(=O)Nc2ccc(Oc3ccnc(-c4cnn(CCN(C)C)c4)c3)cn2)c(=O)n1C [Compound 14]	
274		Cc1cc(Oc2ccnc(-c3cnn(C)c3)c2)ccc1NC(=O)c1cccn(C(C)C)c1=O [Compound 19]	
	10	Cn1cc(-c2cc(Oc3ccc(NC(=O)c4cnc5ccccn5c4=O)nc3)ccn2)cn1 [Compound 26]	
173		Cn1cccc(C(=O)Nc2ccc(Oc3ccnc(-n4cncn4)c3)cn2)c1=O [Compound 29]	
689		Cc1ncc(C(=O)Nc2ccc(Oc3ccnc(-c4cncn4C)c3)cn2)c(=O)n1C [Compound 31]	
113		Cc1cc(Nc2cc(Oc3ccc(NC(=O)c4cnc(C)n(C)c4=O)nc3)ccn2)ccn1 [Compound 35]	
169		Cn1cccc(C(=O)Nc2ccc(Oc3ccnc(-n4cccn4)c3)cn2)c1=O [Compound 37]	
	46	Cn1cc(-c2cc(Oc3ccc(NC(=O)c4cn(C)c(=O)n(C)c4=O)nc3)ccn2)cn1 [Compound 40]	
135		COc1cc(Oc2ccnc(-c3cnn(C)c3)c2)ccc1NC(=O)c1cnc(C)n(C)c1=O [Compound 53]	
121		CC(C)n1ccnc(C(=O)Nc2ccc(Oc3ccnc(-c4cnn(C)c4)c3)cn2)c1=O [Compound 59]	
	12	Cn1cc(-c2cc(Oc3ccc(NC(=O)c4cnc(C5CC5)n(C)c4=O)nc3)ccn2)cn1 [Compound 74]	
	6	Cn1cc(-c2cc(Oc3ccc(NC(=O)c4cccn(CC(F)(F)F)c4=O)nc3)ccn2)cn1 [Compound 87]	
	567	COc1cc(Oc2ccnc(-c3cnn(C)c3)c2)cnc1NC(=O)c1cccn(C(C)C)c1=O [Compound 92, 1-isopropyl-N-(3-methoxy-5-((2-(1-methyl-1H-pyrazol-4-yl)pyridin-4-yl)oxy)pyridin-2-yl)-2-oxo-1,2-dihydropyridine-3-carboxamide]	
	142	Cn1cccc(C(=O)Nc2ccc(Oc3ccnc(-c4cnn(CCO)c4)c3)cn2)c1=O [Compound 94, N-(5-((2-(1-(2-hydroxyethyl)-1H-pyrazol-4-yl)pyridin-4-yl)oxy)pyridin-2-yl)-1-methyl-2-oxo-1,2-dihydropyridine-3-carboxamide]	
484		CCN1CCN(c2cc(Oc3ccc(NC(=O)c4cccn(C(C)C)c4=O)nc3)ccn2)CC1 [Compound 98, N-(5-((2-(4-ethylpiperazin-1-yl)pyridin-4-yl)oxy)pyridin-2-yl)-1-isopropyl-2-oxo-1,2-dihydropyridine-3-carboxamide]	
177		Cc1ncc(C(=O)Nc2ccc(Oc3ccnc(-c4cnn(CCN)c4)c3)cn2)c(=O)n1C [Compound 109, N-(5-((2-(1-(2-aminoethyl)-1H-pyrazol-4-yl)pyridin-4-yl)oxy)pyridin-2-yl)-1,2-dimethyl-6-oxo-1,6-dihydropyrimidine-5-carboxamide]	
111		CNCCn1cc(-c2cc(Oc3ccc(NC(=O)c4cnc(C)n(C)c4=O)nc3)ccn2)cn1 [Compound 110]	
467		Cc1ncc(C(=O)Nc2ccc(Oc3ccnc(-c4nccs4)c3)cn2)c(=O)n1C [Compound 119]	
413		Cc1ncc(C(=O)Nc2ccc(Oc3ccnc(C4=CCCCC4)c3)cn2)c(=O)n1C [Compound 121]	
55		Cc1ccc(-c2cc(Oc3ccc(NC(=O)c4cnc(C)n(C)c4=O)nc3)ccn2)o1 [Compound 122]	
	526	Cn1cc(-c2cc(Oc3ccc(NC(=O)c4cnc(O)n(C)c4=O)nc3)ccn2)cn1 [Compound 134, 2-hydroxy-1-methyl-N-(5-((2-(1-methyl-1H-pyrazol-4-yl)pyridin-4-yl)oxy)pyridin-2-yl)-6-oxo-1,6-dihydropyrimidine-5-carboxamide]	
12	7	Cc1ncc(C(=O)Nc2ccc(Oc3ccnc(-c4cn(C)nc4O)c3)cn2)c(=O)n1C [Compound 135, N-(5-((2-(3-hydroxy-1-methyl-1H-pyrazol-4-yl)pyridin-4-yl)oxy)pyridin-2-yl)-1,2-dimethyl-6-oxo-1,6-dihydropyrimidine-5-carboxamide]	
